Results reported in article PMC11740379, “Novel Enyne-Modified 1,4-Thiazepines as Epidermal Growth Factor Receptor Inhibitors: Anticancer and Computational Studies” (ACS Omega, 2024).
Like-named read-outs stand apart in the source and are kept apart here.

Columns and labels:
A549 cells = experiment: Annexin V-FITC/PI apoptosis detection by flow cytometry; type: cell-based, human; details: A549, IC50 concentration, 72 h
Excerpt: (§1) Annexin V, a protein with a high affinity for phosphatidylserine (PS), is pivotal in detecting apoptosis. Normally, PS is located in the inner leaflet of the plasma membrane, but during apoptosis, it moves to the outer leaflet, making it a key marker for apoptotic cells.[16] Annexin V binds specifically to PS on the surface of these cells. A secondary dye like propidium iodide (PI) is used to distinguish apoptotic cells from viable ones with intact membranes. We can identify and quantify viable cells (annexin V–, PI–) and apoptotic cells (annexin V+, PI+) by analyzing fluorescence patterns. Here, we employed the FITC Annexin V Apoptosis Detection Kit I from BD Pharmingen. Cells were seeded at a density of 10^6 cells per well in a 6-well plate and exposed to IC50 concentration of TZEP7 for 72 h. Following treatment, cells were rinsed with cold PBS, resuspended in 1 mL of 1× Binding Buffer, and stained with 5 μL of Annexin V FITC and 5 μL of PI. After vortexing, the samples were incubated at room temperature (25 °C) for 15 min in the dark. Postincubation, 400 μL of 1× Binding Buffer was added to each sample, and apoptosis was measured using a BD Accuri C6 Flow Cytometer. Cisplatin was used as an apoptosis-inducing reference drug.

MCF-7 cells = experiment: as above; type: cell-based, human; details: MCF-7, IC50 concentration, 72 h
Excerpt: as §1

PC-3 cells [1] = experiment: as above; type: cell-based, human; details: PC-3, IC50 concentration, 72 h
Excerpt: as §1

Caspase-8 mRNA = experiment: qRT-PCR of apoptosis-related mRNA; type: cell-based, human; details: 72 h, vs untreated control
Experimental: (§2) To measure the mRNA expression levels of apoptosis-related genes B-cell lymphoma 2 (Bcl-2), Bcl-2-associated X protein (Bax), Cyclin-dependent kinase 2 (CDK2), and Cyclin E, total mRNA was extracted from cells treated with compound 6f using Trizol reagent (Sigma). cDNA was synthesized from the total mRNA using the Qiagen cDNA synthesis kit according to the manufacturer’s instructions. The following primers, each at a concentration of 350 nM, were employed: Bcl-2; forward ([…]), reverse ([…]); Bax; forward ([…]), reverse ([…]); Caspase-8; forward ([…]), reverse ([…]); Caspase-9; forward (TGTCTACGGCACAGATGGA), reverse (GGACTCGTCTTCAGGGGA); EGFRWT: forward ([…]), reverse (CCTGTGCCAGGGACCTTAC−); EGFRT790 M forward ([…]), reverse ([…]); human GAPDH; forward ([…]), reverse (AGATGGTGATGGGCTTCCC). The PCR mix was prepared with 1× buffer containing 0.2 mM dNTPs, 1.6 mM MgCl2, […] of each primer set, cDNA, and 0.25 U Taq polymerase. The PCR conditions were as follows: an initial denaturation at 95 °C for 60 s, followed by 50 cycles of 95 °C for 15 s, 60 °C for 15 s, and 72 °C for 60 s. The cycle threshold (CT) for each replicate was normalized to the average CT of the endogenous control (GAPDH). The relative quantification of gene expression was calculated using the comparative CT method.[17]

Bcl-2 mRNA = experiment: qRT-PCR of apoptosis-related mRNA; type: cell-based, human; details: 72 h, vs untreated control
Experimental: as §2

Caspase-9 mRNA = experiment: qRT-PCR of apoptosis-related mRNA; type: cell-based, human; details: 72 h, vs untreated control
Experimental: as §2

Bax mRNA = experiment: qRT-PCR of apoptosis-related mRNA; type: cell-based, human; details: 72 h, vs untreated control
Experimental: as §2

EGFRT790M kinase = EGFRT790M kinase (Homo sapiens, UniProt P00533, T790M); experiment: EGFR kinase inhibition assay (HTRF KinEASE-TK); type: biochemical
EGFRT790M kinase, sequence (P00533 25-1210 T790M): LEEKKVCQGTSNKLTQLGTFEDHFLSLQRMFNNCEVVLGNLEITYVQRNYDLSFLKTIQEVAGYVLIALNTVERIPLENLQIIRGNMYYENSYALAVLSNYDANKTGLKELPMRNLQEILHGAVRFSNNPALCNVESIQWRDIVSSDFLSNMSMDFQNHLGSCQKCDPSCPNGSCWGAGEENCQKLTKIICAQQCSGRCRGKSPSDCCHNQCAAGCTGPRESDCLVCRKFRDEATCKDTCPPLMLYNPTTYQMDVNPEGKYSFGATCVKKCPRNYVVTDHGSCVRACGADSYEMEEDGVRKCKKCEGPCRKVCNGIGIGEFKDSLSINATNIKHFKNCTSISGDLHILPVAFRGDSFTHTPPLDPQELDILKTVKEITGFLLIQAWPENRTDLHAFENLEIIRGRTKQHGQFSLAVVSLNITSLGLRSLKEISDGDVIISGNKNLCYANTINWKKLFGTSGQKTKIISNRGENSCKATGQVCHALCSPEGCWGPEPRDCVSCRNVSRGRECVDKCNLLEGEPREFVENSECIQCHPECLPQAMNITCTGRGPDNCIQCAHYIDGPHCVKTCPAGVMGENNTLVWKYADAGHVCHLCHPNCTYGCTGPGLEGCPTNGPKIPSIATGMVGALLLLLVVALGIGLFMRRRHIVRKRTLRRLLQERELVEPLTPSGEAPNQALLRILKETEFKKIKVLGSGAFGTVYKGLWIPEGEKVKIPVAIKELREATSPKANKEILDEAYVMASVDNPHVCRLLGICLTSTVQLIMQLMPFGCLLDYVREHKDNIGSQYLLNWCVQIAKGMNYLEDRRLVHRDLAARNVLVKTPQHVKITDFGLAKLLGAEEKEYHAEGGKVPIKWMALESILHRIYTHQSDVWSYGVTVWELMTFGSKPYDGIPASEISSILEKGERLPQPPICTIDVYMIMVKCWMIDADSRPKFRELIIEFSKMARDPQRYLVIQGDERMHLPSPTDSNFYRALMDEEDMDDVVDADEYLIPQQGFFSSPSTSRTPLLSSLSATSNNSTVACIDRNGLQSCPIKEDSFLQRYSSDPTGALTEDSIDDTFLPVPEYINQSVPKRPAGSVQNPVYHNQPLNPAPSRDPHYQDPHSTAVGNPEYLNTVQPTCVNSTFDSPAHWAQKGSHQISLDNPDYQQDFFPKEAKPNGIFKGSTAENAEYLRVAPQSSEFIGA
Experimental: The inhibitory effects of the target compounds on various EGFR kinases were assessed using a homogeneous time-resolved fluorescence (HTRF) assay, employing the HTRF KinEASE-TK kit (Cat# 62TK0PEC, Cisbio).[18] TZEP7 was tested at a range of diluted concentrations in the presence of 1% dimethyl sulfoxide (DMSO), with the kinase and compounds preincubated for 5 min. The reactions were initiated by adding ATP and TK-substrate-biotin, followed by a 60 min incubation at room temperature. The reactions were then stopped using a stop buffer containing 62.5 nM Strep-XL665 and TK antibody (Ab)-Cryptate. After a 1 h incubation of the plate, readings were taken on a microplate reader under standard HTRF conditions. IC50 values were calculated using GraphPad Prism 5.0 software. Each reaction was duplicated, and at least three independent determinations were conducted. The data were analyzed using GraphPad Prism.

PC-3 cells [2] = experiment: XTT cytotoxicity assay, prostate cancer cells; type: cell-based, human
Experimental: The cells were cultured in RPMI medium (Sigma) supplemented with 10% heat-inactivated fetal bovine serum, 1% penicillin, and 1% L-glutamine, and incubated in a humidified CO2 atmosphere at 37 °C.
To evaluate the cytotoxic effects of TZEPs, which were dissolved in dimethyl sulfoxide (DMSO), the XTT assay (2,3-bis(2-methoxy-4-nitro-5-sulfophenyl)-2H-tetrazolium-5-carboxanilide) was employed. […] Following the incubation, 100 μL of XTT was added to each well, and the plates were incubated for an additional 4 h at 37 °C. The resulting color change was measured by recording the absorbance at 570 nm using a microplate reader (Tecan).
Conversely, an SI less than 1 means the drug is more toxic to normal cells than to target cells, which is undesirable in therapeutic contexts.

For Cc1cc(C2=NCC(=CC#Cc3ccccc3)SC(c3ccc(Cl)cc3)=C2)ccc1F [TZEP7], the “cells in early apoptosis” value (A549 cells) was 15.1%, the “cells in late apoptosis” value (A549 cells) was 68.7% and the “cells in early apoptosis” value (MCF-7 cells) was 22.4%. The “cells in late apoptosis” value (MCF-7 cells) was 68.5%, the “cells in early apoptosis” value (PC-3 cells [1]) was 13.7% and the “cells in late apoptosis” value (PC-3 cells [1]) was 65.6%. The “induction of Caspase-8 mRNA level” value (Caspase-8 mRNA; A549, IC50 concentration) was 3.8 fold, the “induction of Caspase-8 mRNA level” value (Caspase-8 mRNA; MCF-7, IC50 concentration) was 4.2 fold and the “induction of Caspase-8 mRNA level” value (Caspase-8 mRNA; PC-3, IC50 concentration) was 5.4 fold. For the same molecule, the “reduction of Bcl-2 mRNA level” value (Bcl-2 mRNA; A549, IC50 concentration) was 3.3 fold, the “reduction of Bcl-2 mRNA level” value (Bcl-2 mRNA; MCF-7, IC50 concentration) was 3.4 fold and the “reduction of Bcl-2 mRNA level” value (Bcl-2 mRNA; PC-3, IC50 concentration) was 4.3 fold. For the same molecule, the “induction of Caspase-9 mRNA level” value (Caspase-9 mRNA; A549, IC50 concentration) was 3.7 fold, the “induction of Caspase-9 mRNA level” value (Caspase-9 mRNA; MCF-7, IC50 concentration) was 4.4 fold and the “induction of Caspase-9 mRNA level” value (Caspase-9 mRNA; PC-3, IC50 concentration) was 3.6 fold. For the same molecule, the “increase of Bax mRNA level” value (Bax mRNA; A549, IC50 concentration) was 4.8 fold, the “increase of Bax mRNA level” value (Bax mRNA; MCF-7, IC50 concentration) was 4.1 fold and the “increase of Bax mRNA level” value (Bax mRNA; PC-3, IC50 concentration) was 4.3 fold. The IC50 (EGFRT790M kinase) was 280 nM, the IC50 (EGFRT790M kinase; A549 cells) was 220 nM and the IC50 (EGFRT790M kinase; MCF-7 cells) was 290 nM. It also gave an IC50 (PC-3 cells [2]; Homo sapiens, PC-3, XTT assay, exposure time of the IC50 not stated (24, 48, 72 h tested), read-out: IC50, prostate cancer (PC-3)) of 16900 ± 1600 nM, a viability at 0.1 µM (PC-3 cells [2]; Homo sapiens, PC-3, 0.1 μM, read-out: cell viability) of 83% and a viability at 1 µM (PC-3 cells [2]; Homo sapiens, PC-3, 1 μM, read-out: cell viability) of 71%. The viability at 10 µM (PC-3 cells [2]; Homo sapiens, PC-3, 10 μM, read-out: cell viability) was 22%, the viability at 50 µM (PC-3 cells [2]; Homo sapiens, PC-3, 50 μM, read-out: cell viability) was 18% and the viability at 100 µM (PC-3 cells [2]; Homo sapiens, PC-3, 100 μM, read-out: cell viability) was 12%. The “Selectivity index (SI), prostate cancer (PC-3)” value (PC-3 cells [2]; versus normal cells HEK-293) was 3.21.
